# According to US8017611B2, “Pyridine and pyrazine derivatives -083” (AstraZeneca AB, priority 2007, dated 2011):
# Biological target: T1, recombinant Axl tyrosine kinase (Homo sapiens, UniProt P30530)
# T1 construct: encompassing amino acids 473 to 894 of Axl; GST (N); made in house; host or cells: SF126 insect cells
# T1 sequence (P30530 473-894): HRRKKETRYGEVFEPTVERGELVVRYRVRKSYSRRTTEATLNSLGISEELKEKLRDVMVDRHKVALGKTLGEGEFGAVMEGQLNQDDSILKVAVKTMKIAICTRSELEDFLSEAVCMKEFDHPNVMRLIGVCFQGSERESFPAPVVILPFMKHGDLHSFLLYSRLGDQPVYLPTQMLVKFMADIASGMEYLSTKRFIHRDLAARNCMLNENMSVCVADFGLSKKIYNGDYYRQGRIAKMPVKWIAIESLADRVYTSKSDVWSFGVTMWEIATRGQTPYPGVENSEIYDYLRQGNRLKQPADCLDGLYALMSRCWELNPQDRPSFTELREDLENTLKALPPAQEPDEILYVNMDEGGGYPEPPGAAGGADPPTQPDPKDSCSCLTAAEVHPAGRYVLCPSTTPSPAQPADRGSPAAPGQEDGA
# Experiment: In vitro Axl kinase assay (AlphaScreen), Test (a)
# Type: biochemical
# Conditions: 1 μM; mean calculated from a larger number of replicates than the first value
# Description: Test compounds were prepared as 10 mM stock solutions in dimethylsulphoxide (DMSO) and diluted in DMSO as required. Aliquots (120 nl) of compound dilutions were filled into the wells of a Greiner 384-well low volume (LV) white polystyrene plate (Greiner Bio-one) using acoustic dispensing (Labcyte Echo 550). A 10 μl mixture of recombinant purified Axl enzyme, biotinylated peptide substrate (Biotin poly-GAT; CisBio, Catalogue No. 61GATBLB), 0.2 μM adenosine triphosphate (ATP) and a buffer solution [comprising 20 mM Tris-HCl pH 7.5 buffer, 0.01% v/v Tween, 5 mM dithiothreitol (DTT) and 10 mM manganese chloride] was incubated with the compounds at room temperature for 20 minutes.
# Control wells that produced a minimum signal corresponding to 100% inhibited enzyme were created by adding 10 μM of Staurosporine.
# The percentage kinase inhibition value is the percentage of Axl tyrosine kinase activity inhibited by the test compound at a concentration of 1 μM.
row,"% Axl tyrosine kinase inhibition at 1 μM concentration (second value, †) [%]",SMILES
1,52.6,Nc1ncc(-c2cccc(N3CCOCC3)c2)cc1-c1nc2ncccc2o1 [Example 10A.1]

# Same assay, conditions: 1 μM; mean calculated from a larger number of replicates than the first value; read-out: % Axl tyrosine kinase inhibition at 1 μM concentration (second value, †)
row,inhibition at 1 µM [%],SMILES
1,99.4,"CC(C)(C)OC(=O)N1CCC(n2cc(-c3cnc(N)c(-c4nc5ccccc5o4)n3)cn2)CC1 [Example 15, Tert-butyl 4-[4-[5-amino-6-(1,3-benzoxazol-2-yl)pyrazin-2-yl]pyrazol-1-yl]piperidine-1-carboxylate]"

# Same assay, conditions: Test (a); read-out: IC50 versus Axl tyrosine kinase
row,IC50 [pM],SMILES
1,~100,COCc1nn(C2CCNCC2)cc1-c1cnc(N)c(-c2nc3cccc(OC)c3o2)c1 [Example 62.14]
2,~700,COCc1nn(C2CCN(C(=O)[C@H](C)O)CC2)cc1-c1cnc(N)c(-c2nc3ccccc3o2)c1 [Example 67.1]

# Same assay, conditions: test compound at 1 μM; first value quoted
row,% Axl tyrosine kinase inhibition at 1 μM concentration [%],SMILES
1,99.1,Nc1ncc(-c2cccc(CN3CCOCC3)c2)nc1-c1nc2ccccc2o1 [Example 20.10]
2,99.9,Nc1ncc(-c2ccc(C(=O)N3CCN4CCCC4C3)cc2)cc1-c1nc2cccnc2o1 (centres unmarked) [Example 45A.74]
3,97.0,Nc1ncc(-c2ccc(C(=O)NCCO)cc2)cc1-c1nc2cccnc2o1 [Example 9A.2]
4,31.3,Nc1ncc(-c2ccc3[nH]ccc3c2)cc1-c1nc2ccccc2o1 [Example 2.29]
5,94.3,Nc1ncc(-c2ccc(C(=O)N3CCC(N4CCCCC4)CC3)cc2)cc1-c1nc2cccnc2o1 [Example 45A.52]
6,99.6,C[C@H](O)C(=O)N1CCC(n2cc(-c3cnc(N)c(-c4nc5cccnc5o4)c3)cn2)CC1 [Example 57.7]
7,93.7,CCS(=O)(=O)c1ccc(-c2cnc(N)c(-c3nc4ccccc4o3)c2)cc1 [Example 2.1]
8,95.7,NCCCCOc1ccc(-c2cnc(N)c(-c3nc4ncccc4o3)c2)cc1 [Example 43B.34]
9,55.3,Nc1ncc(-c2cccc(N3CCOCC3)c2)cc1-c1nc2ncccc2o1 [Example 10A.1]
10,98.8,NC(=O)CN1CCC(n2cc(-c3cnc(N)c(-c4nc5ncccc5o4)c3)cn2)CC1 [Example 53.3]
11,99.5,NC(=O)c1nn(C2CCNCC2)cc1-c1cnc(N)c(-c2nc3ccccc3o2)c1 [Example 62.5]
12,99.1,COc1cc(-c2cnc(N)c(-c3nc4ncccc4o3)c2)ccc1OCCN1CCN(C)CC1 [Example 43C.7]
13,81.0,CS(=O)(=O)Oc1cccc(-c2cnc(N)c(-c3nc4ccccc4o3)c2)c1 [Example 2.52]
14,100.0,COCc1nn(C2CCN(C)CC2)cc1-c1cnc(N)c(-c2nc3c(C#N)cccc3o2)c1 [Example 41.39]
15,97.7,CNS(=O)(=O)c1cccc(-c2cnc(N)c(-c3nc4cnccc4o3)c2)c1 [Example 8A.6]
16,98.9,CC(=O)NCCC(=O)N1CCC(n2cc(-c3cnc(N)c(-c4nc5ncccc5o4)c3)cn2)CC1 [Example 59.4]
17,99.5,CN(C)CCCOc1ccc(-c2cnc(N)c(-c3nc4ccccc4o3)c2)cn1 [Example 2.26]
18,97.2,COc1cc(-c2cnc(N)c(-c3nc4ncccc4o3)c2)ccc1OCCCN1CCN(S(C)(=O)=O)CC1 [Example 43C.15]
19,99.7,Nc1ncc(-c2cnn(CCN3CCC[C@@H]3CO)c2)cc1-c1nc2ccccc2o1 [Example 31.8]
20,99.1,Nc1ncc(-c2ccc(C(=O)N3CCC(N4CCCC4)CC3)cc2)cc1-c1nc2cccnc2o1 [Example 45A.63]
21,100.0,CN1CCC(n2cc(-c3cnc(N)c(-c4nc5ccccc5o4)c3)cn2)C1 (centres unmarked) [Example 41.9]
22,99.8,Cc1nn(C2CCNCC2)cc1-c1cnc(N)c(-c2nc3c(C#N)cccc3o2)c1 [Example 62.11]
23,100.0,C[C@H](O)C(=O)N1CCC(n2cc(-c3cnc(N)c(-c4nc5ccccc5o4)c3)c(CO)n2)CC1 [Example 67.2]
24,98.9,CN(C)C1CCCN(C(=O)c2ccc(-c3cnc(N)c(-c4nc5cccnc5o4)c3)cc2)C1 (centres unmarked) [Example 45A.20]
25,99.8,Nc1ncc(-c2cnn(C3CNC3)c2)cc1-c1nc2ccccc2o1 [Example 29.2]

# The remaining lines, values behind:
row,SMILES,% Axl tyrosine kinase inhibition at 1 μM concentration [%]
1,CN1CCCC(NC(=O)c2ccc(-c3cnc(N)c(-c4nc5cccnc5o4)c3)cc2)C1 (centres unmarked) [Example 45A.19],98.7
2,COCc1nn(C2CCNCC2)cc1-c1cnc(N)c(-c2nc3cccc(OC)c3o2)c1 [Example 62.14],100.0
3,N#Cc1ccc(-c2cnc(N)c(-c3nc4ccccc4o3)c2)cc1 [Example 2.44],25.0
4,N#Cc1cccc(-c2cnc(N)c(-c3nc4cnccc4o3)c2)c1 [Example 8A.11],89.6
5,Nc1ncc(-c2ccc(C(=O)NC[C@H]3CCCNC3)cc2)cc1-c1nc2cccnc2o1 [Example 45A.93],99.3
6,Cc1nn(C2CCN(C)CC2)cc1-c1cnc(N)c(-c2nc3ccccc3o2)n1 [Example 41.21],100.0
7,CC(O)C(=O)N1CCC(n2cc(-c3cnc(N)c(-c4nc5ccccc5o4)c3)cn2)CC1 (centres unmarked) [Example 34.3],99.7
8,Cc1nn(C2CCN(C)CC2)c(C)c1-c1cnc(N)c(-c2nc3ccccc3o2)c1 [Example 41.17],84.8
9,CN1CCC[C@H]1COc1ccc(-c2cnc(N)c(-c3nc4ncccc4o3)c2)cc1 [Example 43B.5],99.4
10,COc1cc(-c2cnc(N)c(-c3nc4ncccc4o3)c2)ccc1N1CCNCC1 [Example 25.8],99.8
11,CN1CCCCC1C1CCCN1C(=O)c1ccc(-c2cnc(N)c(-c3nc4cccnc4o3)c2)cc1 (centres unmarked) [Example 45A.15],99.7
12,COc1cc(-c2cnc(N)c(-c3nc4ncccc4o3)c2)ccc1OCCC1CCNCC1 [Example 43C.31],99.3
13,N#CCc1ccc(-c2cnc(N)c(-c3nc4ccccc4o3)c2)cc1 [Example 2.51],93.1
14,Nc1ncc(-c2cnn(C3CCN(CCO)CC3)c2)cc1-c1nc2ncccc2o1 [Example 53.5],100.0
15,CN1CCC(CNC(=O)c2ccc(-c3cnc(N)c(-c4nc5cccnc5o4)c3)cc2)CC1 [Example 45A.25],97.8
16,COCc1nn(C2CCN(C(=O)[C@H](C)O)CC2)cc1-c1cnc(N)c(-c2nc3ccccc3o2)c1 [Example 67.1],100.0
17,CN1CCCCC1CNC(=O)c1ccc(-c2cnc(N)c(-c3nc4cccnc4o3)c2)cc1 (centres unmarked) [Example 45A.26],99.6
18,Cc1nn(C2CCN(C)CC2)cc1-c1cnc(N)c(-c2nc3c(C#N)cccc3o2)c1 [Example 41.40],99.2
19,Cc1nn(C2CCNCC2)c(C)c1-c1cnc(N)c(-c2nc3ccccc3o2)c1 [Example 29.8],88.7
20,CC(=O)Nc1cccc(-c2cnc(N)c(-c3nc4ccccc4o3)c2)c1 [Example 2.20],97.6

# Same assay, conditions: test compound at 1 μM; first value quoted; read-out: % Axl tyrosine kinase inhibition at 1 μM concentration
row,inhibition at 1 µM [%],SMILES
1,98.6,"Nc1ncc(-c2cnn(C3CCNCC3)c2)cc1-c1nc2ccccc2o1 [Example 2.3, 3-(1,3-Benzoxazol-2-yl)-5-[1-(4-piperidyl)pyrazol-4-yl]pyridin-2-amine]"
2,99.2,"Nc1ncc(-c2cnn(C3CCNCC3)c2)cc1-c1nc2cnccc2o1 [Example 8, 3-Oxazolo[4,5-c]pyridin-2-yl-5-[1-(4-piperidyl)pyrazol-4-yl]pyridin-2-amine]"
3,99,"Nc1ncc(-c2cnn(C3CCNCC3)c2)cc1-c1nc2ccncc2o1 [Example 11, 3-Oxazolo[5,4-c]pyridin-2-yl-5-[1-(4-piperidyl)pyrazol-4-yl]pyridin-2-amine]"
4,93.1,"CC(C)(C)OC(=O)N1CCC(n2cc(-c3cnc(N)c(-c4nc5ccccc5o4)n3)cn2)CC1 [Example 15, Tert-butyl 4-[4-[5-amino-6-(1,3-benzoxazol-2-yl)pyrazin-2-yl]pyrazol-1-yl]piperidine-1-carboxylate]"
5,99.8,"CN(C)Cc1ccc(-c2cnc(N)c(-c3nc4ccccc4o3)c2)cc1 [Example 1, 3-Benzoxazol-2-yl-5-[4-(dimethylaminomethyl)phenyl]pyridin-2-amine]"

# Continued, compound first:
row,SMILES,inhibition at 1 µM [%]
1,"Nc1ncc(-c2cnn(C3CCNCC3)c2)nc1-c1nc2ccccc2s1 [Example 19, 3-(1,3-Benzothiazol-2-yl)-5-[1-(4-piperidyl)pyrazol-4-yl]pyrazin-2-amine]",99.6
2,"COCC(=O)N1CCC(n2cc(-c3cnc(N)c(-c4nc5ccccc5o4)c3)cn2)CC1 [Example 33, 1-[4-[4-[6-amino-5-(1,3-benzoxazol-2-yl)-3-pyridyl]pyrazol-1-yl]-1-piperidyl]-2-methoxy-ethanone]",99.9
